Tests used:
Format in all cases: in vivo
[1] = tested on: barnyardgrass (Echinochloa crus-galli); test: Test A preemergence soil spray, visual injury rating 0-100; conditions: 10 days
How it was run: (§1)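 Directed preemergence spray onto seeded soil or postemergence spray onto 2-10 cm plants (loam plus sand); compound carried in surfactant-containing non-phytotoxic solvent. Injury rated by eye after 10 d greenhouse growth; 0 = no effect, 100 = complete control.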

[2] = tested on: blackgrass (Alopecurus myosuroides); test: as above; conditions: 10 days
How it was run: as §1

[3] = tested on: corn (Zea mays); test: as above; conditions: 10 days
How it was run: as §1

[4] = tested on: green foxtail (Setaria viridis); test: as above; conditions: 10 days
How it was run: as §1

[5] = tested on: kochia (Bassia scoparia); test: as above; conditions: 10 days
How it was run: as §1

[6] = tested on: oat, wild (wild oat, Avena fatua); test: as above; conditions: 10 days
How it was run: as §1

[7] = tested on: palmer (palmer amaranth, palmer pigweed, Amaranthus palmeri); test: as above; conditions: 10 days
How it was run: as §1

[8] = tested on: ragweed (common ragweed, Ambrosia artemisiifolia); test: as above; conditions: 10 days
How it was run: as §1

[9] = tested on: ryegrass, Italian (italian ryegrass, Lolium multiflorum); test: as above; conditions: 10 days
How it was run: as §1

[10] = tested on: soybean (Glycine max); test: as above; conditions: 10 days
How it was run: as §1

[11] = tested on: wheat (Triticum aestivum); test: as above; conditions: 10 days
How it was run: as §1

[12] = tested on: barnyardgrass (Echinochloa crus-galli); test: Test A postemergence application, visual injury rating 0-100
How it was run: as §1

[13] = tested on: blackgrass (Alopecurus myosuroides); test: as above
How it was run: as §1

[14] = tested on: corn (Zea mays); test: as above
How it was run: as §1

[15] = tested on: galium (catchweed bedstraw, Galium aparine); test: as above
How it was run: as §1

[16] = tested on: green foxtail (Setaria viridis); test: as above
How it was run: as §1

[17] = tested on: horseweed (Erigeron canadensis); test: as above
How it was run: as §1

[18] = tested on: kochia (Bassia scoparia); test: as above
How it was run: as §1

[19] = tested on: oat, wild (wild oat, Avena fatua); test: as above
How it was run: as §1

[20] = tested on: palmer (palmer amaranth, palmer pigweed, Amaranthus palmeri); test: as above
How it was run: as §1

[21] = tested on: ragweed (common ragweed, Ambrosia artemisiifolia); test: as above
How it was run: as §1

[22] = tested on: ryegrass, Italian (italian ryegrass, Lolium multiflorum); test: as above
How it was run: as §1

[23] = tested on: soybean (Glycine max); test: as above
How it was run: as §1

[24] = tested on: wheat (Triticum aestivum); test: as above
How it was run: as §1

[25] = tested on: barnyardgrass (Echinochloa crusgalli); test: Test B flooded paddy test, visual plant response rating 0-100; conditions: 250 g ai/ha, Flood, applied to paddy water, evaluated after 13 days
How it was run: (§2)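 Treatment occurs at the 2-leaf stage by adding compound to floodwater standing 3 cm above the soil, a level kept for the whole test. Plants stay in the greenhouse 13 days before visual comparison with controls.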

[26] = tested on: ducksalad (Heteranthera limosa); test: as above; conditions: 250 g ai/ha, Flood, applied to paddy water, evaluated after 13 days
How it was run: as §2

[27] = tested on: rice (Oryza sativa); test: as above; conditions: 250 g ai/ha, Flood, applied to paddy water, evaluated after 13 days
How it was run: as §2

[28] = tested on: sedge, umbrella (small-flower umbrella sedge, Cyperus difformis); test: as above; conditions: 250 g ai/ha, Flood, applied to paddy water, evaluated after 13 days
How it was run: as §2

[29] = 62 g ai/ha, 0 = no effect, 100 = complete control
[30] = 62 g ai/ha, postemergence, 10 days, 0 = no effect, 100 = complete control
[31] = Postemergence, 16 g ai/ha, greenhouse 10 days, 0 no effect, 100 complete control

Q: With `COC(=O)C1C=CC(NC(=O)C2(C)CN(c3cc(Cl)c(F)c(Cl)c3)C(=O)O2)C1` (stereo not shown) [Compound 150] as the compound, how does the “Barnyardgrass plant response rating” value ([1]; 16 g ai/ha, 0 to 100 scale) read?
A: Its value is 0.

Q: What about the “Barnyardgrass plant response rating (0-100)” value [1, 29] of the same compound?
A: The value was 90.

Q: What about the “Blackgrass plant response rating” value ([2]; 16 g ai/ha, 0 to 100 scale) of the same compound?
A: Its value is 0.

Q: And the “Blackgrass plant response rating (0-100)” value [2, 29]?
A: The value was 50.

Q: And the “Corn plant response rating” value ([3]; 16 g ai/ha, 0 to 100 scale)?
A: Its value is 0.

Q: And the “Corn plant response rating (0-100)” value [3, 29]?
A: Its value is 70.

Q: And the “Foxtail, Green plant response rating” value ([4]; 16 g ai/ha, 0 to 100 scale)?
A: Its value is 0.

Q: What about the “Foxtail, Green plant response rating (0-100)” value [4, 29] of the same compound?
A: Its value is 90.

Q: What about the “Kochia plant response rating” value ([5]; 16 g ai/ha, 0 to 100 scale) of the same compound?
A: The value was 20.

Q: What about the “Kochia plant response rating (0-100)” value [5, 29] of the same compound?
A: Its value is 90.

Q: And the “Oat, Wild plant response rating” value ([6]; 16 g ai/ha, 0 to 100 scale)?
A: The value was 0.

Q: And the “Oat, Wild plant response rating (0-100)” value [6, 29]?
A: The value was 10.

Q: What about the “Pigweed, Palmer plant response rating” value ([7]; 16 g ai/ha, 0 to 100 scale) of the same compound?
A: The value was 10.

Q: What about the “Pigweed, Palmer plant response rating (0-100)” value [7, 29] of the same compound?
A: Its value is 90.

Q: And the “Ragweed plant response rating” value ([8]; 16 g ai/ha, 0 to 100 scale)?
A: The value was 0.

Q: What about the “Ragweed plant response rating (0-100)” value [8, 29] of the same compound?
A: Its value is 0.

Q: And the “Ryegrass, Italian plant response rating” value ([9]; 16 g ai/ha, 0 to 100 scale)?
A: Its value is 10.

Q: And the “Ryegrass, Italian plant response rating (0-100)” value [9, 29]?
A: Its value is 50.

Q: What about the “Soybean plant response rating” value ([10]; 16 g ai/ha, 0 to 100 scale) of the same compound?
A: The value was 0.

Q: What about the “Soybean plant response rating (0-100)” value [10, 29] of the same compound?
A: Its value is 0.

Q: And the “Wheat plant response rating” value ([11]; 16 g ai/ha, 0 to 100 scale)?
A: Its value is 0.

Q: And the “Wheat plant response rating (0-100)” value [11, 29]?
A: The value was 80.

Q: And the “Barnyardgrass plant response rating (0-100)” value [12, 30]?
A: The value was 100.

Q: And the “Barnyardgrass plant response rating (0 to 100 scale)” value [12, 31]?
A: Its value is 90.

Q: What about the “Blackgrass plant response rating (0-100)” value [13, 30] of the same compound?
A: Its value is 90.

Q: And the “Blackgrass plant response rating (0 to 100 scale)” value [13, 31]?
A: The value was 80.

Q: What about the “Corn plant response rating (0-100)” value [14, 30] of the same compound?
A: The value was 100.

Q: What about the “Corn plant response rating (0 to 100 scale)” value [14, 31] of the same compound?
A: The value was 100.

Q: What about the “Galium plant response rating (0-100)” value [15, 30] of the same compound?
A: The value was 80.

Q: And the “Galium plant response rating (0 to 100 scale)” value [15, 31]?
A: The value was 70.

Q: And the “Foxtail, Green plant response rating (0-100)” value [16, 30]?
A: The value was 90.

Q: And the “Foxtail, Green plant response rating (0 to 100 scale)” value [16, 31]?
A: Its value is 20.

Q: What about the “Horseweed plant response rating (0-100)” value [17, 30] of the same compound?
A: Its value is 60.

Q: What about the “Horseweed plant response rating (0 to 100 scale)” value [17, 31] of the same compound?
A: The value was 20.

Q: What about the “Kochia plant response rating (0-100)” value [18, 30] of the same compound?
A: The value was 70.

Q: What about the “Kochia plant response rating (0 to 100 scale)” value [18, 31] of the same compound?
A: Its value is 20.

Q: And the “Oat, Wild plant response rating (0-100)” value [19, 30]?
A: Its value is 90.

Q: What about the “Oat, Wild plant response rating (0 to 100 scale)” value [19, 31] of the same compound?
A: The value was 60.

Q: And the “Pigweed, Palmer plant response rating (0-100)” value [20, 30]?
A: Its value is 60.

Q: And the “Pigweed, Palmer plant response rating (0 to 100 scale)” value [20, 31]?
A: The value was 40.

Q: What about the “Ragweed plant response rating (0-100)” value [21, 30] of the same compound?
A: The value was 50.

Q: What about the “Ragweed plant response rating (0 to 100 scale)” value [21, 31] of the same compound?
A: The value was 0.

Q: And the “Ryegrass, Italian plant response rating (0-100)” value [22, 30]?
A: The value was 80.

Q: What about the “Ryegrass, Italian plant response rating (0 to 100 scale)” value [22, 31] of the same compound?
A: Its value is 50.

Q: And the “Soybean plant response rating (0-100)” value [23, 30]?
A: The value was 70.

Q: What about the “Soybean plant response rating (0 to 100 scale)” value [23, 31] of the same compound?
A: Its value is 60.

Q: And the “Wheat plant response rating (0-100)” value [24, 30]?
A: The value was 90.

Q: What about the “Wheat plant response rating (0 to 100 scale)” value [24, 31] of the same compound?
A: The value was 70.

Q: What about the “Plant response rating, Barnyardgrass (0 to 100 scale, 0 is no effect and 100 is complete control)” value [25] of the same compound?
A: Its value is 65.

Q: And the “Plant response rating, Ducksalad (0 to 100 scale, 0 is no effect and 100 is complete control)” value [26]?
A: The value was 85.

Q: What about the “Plant response rating, Rice (0 to 100 scale, 0 is no effect and 100 is complete control)” value [27] of the same compound?
A: The value was 30.

Q: What about the “Plant response rating, Sedge, Umbrella (0 to 100 scale, 0 is no effect and 100 is complete control)” value [28] of the same compound?
A: Its value is 75.

Source: US20260285850A1, “SUBSTITUTED OXAZOLIDINONES AND IMIDAZOLINONES AS HERBICIDES” (FMC CORPORATION, priority 2023, published 2026)
